Measurements reported in patent US9914730B2, “Azaquinazoline inhibitors of Atypical protein Kinase C” (Ignyta, Inc., priority 2012, dated 2018).
Structures can show the parent of a compound that is named as a salt.

Target: T1, full-length human PKCι (Homo sapiens, UniProt P41743)
T1 construct: Recombinant, full-length human PKCι expressed in Sf21 insect cells is also commercially available; purchased; host or cells: Sf21 insect cells
T1 sequence (P41743 1-596): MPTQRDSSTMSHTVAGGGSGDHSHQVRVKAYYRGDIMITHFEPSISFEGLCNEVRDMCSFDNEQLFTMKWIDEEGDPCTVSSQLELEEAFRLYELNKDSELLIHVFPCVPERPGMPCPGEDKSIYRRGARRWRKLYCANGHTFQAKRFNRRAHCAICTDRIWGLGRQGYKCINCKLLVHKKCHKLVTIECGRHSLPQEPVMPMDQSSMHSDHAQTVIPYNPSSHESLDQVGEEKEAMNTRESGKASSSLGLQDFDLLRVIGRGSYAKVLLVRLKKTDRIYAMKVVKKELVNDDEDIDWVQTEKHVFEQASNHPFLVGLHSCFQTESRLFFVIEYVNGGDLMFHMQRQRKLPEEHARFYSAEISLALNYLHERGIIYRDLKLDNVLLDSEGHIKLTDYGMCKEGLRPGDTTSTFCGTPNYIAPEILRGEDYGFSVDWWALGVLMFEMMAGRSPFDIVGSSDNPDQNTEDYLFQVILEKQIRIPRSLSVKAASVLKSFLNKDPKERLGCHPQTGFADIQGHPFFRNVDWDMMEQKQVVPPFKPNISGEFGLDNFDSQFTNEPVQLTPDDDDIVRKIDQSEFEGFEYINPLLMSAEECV
Experiment: PKCι IC50 IMAP assay, full-length PKCι at 150 μM ATP
Type: biochemical
Conditions: read-out: IC50 in IMAP assay against full length PKCi at 150 μM ATP
Summary of the method: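 Recombinant full-length human PKCι (Sf21-expressed, typically 15 pM) phosphorylated 100 nM 5FAM-labelled PKCε pseudosubstrate-derived peptide with 150 μM ATP (5× KM^APP) in 18 mM tris-HCl pH7.5, 9 mM MgCl2, EGTA, DTT, 4% DMSO. After 60 min at room temperature, IMAP binding reagent was added for 2 h and fluorescence polarisation read.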

c1cc(-c2nc(N3CCNCC3)c3c(C4CC4)cncc3n2)cc(Nc2ccc3ccnn3c2)n1 [Example 563, [4-(5-Cyclopropyl-4-piperazin-1-yl-pyrido[3,4-d]pyrimidin-2-yl)-pyridin-2-yl]-pyrazolo[1,5-a]pyridin-6-yl-amine]
IC50: < 100 nM

C[C@@H](Nc1cc(-c2nc(N3CCNCC3)c3c(C4CC4)cncc3n2)ccn1)c1ccccc1F [Example 2067, [4-(5-Cyclopropyl-4-piperazin-1-yl-pyrido[3,4-d]pyrimidin-2-yl)-pyridin-2-yl]-[(R)-1-(2-fluoro-phenyl)-ethyl]-amine]
IC50: < 100 nM

Cc1ccc(F)c(Nc2cc(-c3nc(N4CCNCC4)c4c(C5CC5)cncc4n3)ccn2)c1 [Example 504, [4-(5-Cyclopropyl-4-piperazin-1-yl-pyrido[3,4-d]pyrimidin-2-yl)-pyridin-2-yl]-(2-fluoro-5-methyl-phenyl)-amine]
IC50: < 100 nM

c1ccc(CC2CN(c3nc(N[C@@H]4CCNC4)c4ccncc4n3)CCO2)cc1 (stereo partly drawn) [Example 1001, [2-(2-Benzyl-morpholin-4-yl)-pyrido[3,4-d]pyrimidin-4-yl]-(R)-pyrrolidin-3-yl-amine]
IC50: 1000 to 10000 nM

FC(F)(F)c1nc2cc(Nc3cc(-c4nc(N5CCNCC5)c5c(C6CC6)cncc5n4)ccn3)ccc2o1 [Example 2133, [4-(5-Cyclopropyl-4-piperazin-1-yl-pyrido[3,4-d]pyrimidin-2-yl)-pyridin-2-yl]-(2-trifluoromethyl-benzooxazol-5-yl)-amine]
IC50: < 100 nM

c1ccc(C[C@@H]2CNCCN2c2nc(-c3ccncc3)nc3cnccc23)cc1 [Example 29, (2R)-2-benzyl-1-[2-(pyridin-4-yl)-pyrido[3,4-d]-pyrimidin-4-yl]-piperazine]
IC50: 1000 to 10000 nM

C[C@@H](Nc1cc(-c2nc(N3CCNC(C)(C)C3)c3c(C4CC4)cncc3n2)ccn1)C1CC1 [Example 2006, {4-[5-Cyclopropyl-4-(3,3-dimethyl-piperazin-1-yl)-pyrido[3,4-d]pyrimidin-2-yl]-pyridin-2-yl}-((R)-1-cyclopropyl-ethyl)-amine]
IC50: < 100 nM

COc1cncc2nc(-c3ccncc3)nc(N3CCN[C@@H](Cc4ccccc4)C3)c12 [Example 30, (3S)-3-benzyl-1-[5-methoxy-2-(pyridin-4-yl)-pyrido[3,4-d]-pyrimidin-4-yl]-piperazine]
IC50: 1000 to 10000 nM

OCC1CN(c2nc(-c3ccnc4[nH]c(C(F)(F)F)cc34)nc3cncc(C4CC4)c23)C1 [Example 1243, {1-[5-Cyclopropyl-2-(2-tritluoromethyl-1H-pyrrolo[2,3-b]pyridin-4-yl)-pyrido[3,4-d]pyrimidin-4-yl]-azetidin-3-yl}-methanol]
IC50: 1000 to 10000 nM

c1ncc2nc(N3CCOCC3)nc(N3CCNCC3)c2c1C1CC1 [Example 1016, 5-Cyclopropyl-2-morpholin-4-yl-4-piperazin-1-yl-pyrido[3,4-d]pyrimidine]
IC50: < 100 nM

COc1cncc2nc(-c3ccnc(Nc4ccccc4)c3)nc(NC[C@@H]3CCCN3)c12 [Example 430, [5-Methoxy-2-(2-phenylamino-pyridin-4-yl)-pyrido[3,4-d]pyrimidin-4-yl]-(S)-1-pyrrolidin-2-ylmethyl-amine]
IC50: 100 to 1000 nM

CCn1nc(Nc2cc(-c3nc(N4CCNCC4)c4c(C5CC5)cncc4n3)ccn2)cc1C [Example 780, [4-(5-Cyclopropyl-4-piperazin-1-yl-pyrido[3,4-d]pyrimidin-2-yl)-pyridin-2-yl]-(1-ethyl-5-methyl-1H-pyrazol-3-yl)-amine]
IC50: < 100 nM

CN(C[C@@H](N)Cc1ccccc1)c1nc(-c2ccncc2)nc2cnccc12 [Example 26, N-[(2S)-2-amino-3-phenylpropyl]-N-methyl-2-(pyridin-4-yl)pyrido[3,4-d]-pyrimidin-4-amine]
IC50: 10000 to 40000 nM

COc1cncc2nc(-c3ccnc(Nc4ccccc4)c3)nc(N3CCN[C@@H](CF)C3)c12 [Example 233, {4-[4-((R)-3-Fluoromethyl-piperazin-1-yl)-5-methoxy-pyrido[3,4-d]pyrimidin-2-yl]-pyridin-2-yl}-phenyl-amine]
IC50: 100 to 1000 nM

c1cc(-c2nc(N3CCNCC3)c3c(C4CC4)cncc3n2)cc(NC23CC4CC(CC(C4)C2)C3)n1 [Example 285, Adamantan-1-yl-[4-(5-cyclopropyl-4-piperazin-1-yl-pyrido[3,4-d]pyrimidin-2-yl)-pyridin-2-yl]-amine]
IC50: < 100 nM

Clc1ncc(Cl)c2c(N3CCNCC3)nc(-c3ccncc3)nc12 [Example 134, 1-[5,8-dichloro-2-(pyridin-4-yl)pyrido[3,4-d]pyrimidin-4-yl]piperazine]
IC50: < 100 nM

COc1cncc2nc(-c3ccnc(Nc4cccnc4F)c3)nc(N3CCNCC3)c12 [Example 450, (2-Fluoro-pyridin-3-yl)-[4-(5-methoxy-4-piperazin-1-yl-pyrido[3,4-d]pyrimidin-2-yl)-pyridin-2-yl]-amine]
IC50: < 100 nM

COc1cncc2nc(-c3ccnc(Nc4ccccc4)c3)nc(N3CCN[C@@H](CCO)C3)c12 [Example 225, 2-{(S)-4-[5-Methoxy-2-(2-phenylamino-pyridin-4-yl)-pyrido[3,4-d]pyrimidin-4-yl]-piperazin-2-yl}-ethanol]
IC50: 100 to 1000 nM

Fc1cc(F)c(Nc2cc(-c3nc(N4CCNCC4)c4c(C5CC5)cnc(C5CC5)c4n3)ccn2)nc1F [Example 2187, [4-(5,8-Dicyclopropyl-4-piperazin-1-yl-pyrido[3,4-d]pyrimidin-2-yl)-pyridin-2-yl]-(3,5,6-trifluoro-pyridin-2-yl)-amine]
IC50: 100 to 1000 nM

OC1CCN(c2nc(-c3ccnc4[nH]c5ccccc5c34)nc3cncc(C4CC4)c23)CC1 [Example 1254, 1-[5-cyclopropyl-2-(9H-pyrido[2,3-b]indol-4-yl)-pyrido[3,4-d]pyrimidin-4-yl]-piperidin-4-ol trifluoroacetic acid salt]
IC50: 100 to 1000 nM

COc1cc(Nc2cc(-c3nc(N4CCNCC4)c4c(OC)cncc4n3)ccn2)cc(OC)c1OC [Example 390, [4-(5-Methoxy-4-piperazin-1-yl-pyrido[3,4-d]pyrimidin-2-yl)-pyridin-2-yl]-(3,4,5-trimethoxy-phenyl)-amine]
IC50: 100 to 1000 nM

Fc1cccnc1Nc1cc(-c2nc(N3CCNCC3)c3c(C4CCC4)cncc3n2)ccn1 [Example 784, [4-(5-Cyclobutyl-4-piperazin-1-yl-pyrido[3,4-d]pyrimidin-2-yl)-pyridin-2-yl]-(3-fluoro-pyridin-2-yl)-amine]
IC50: < 100 nM

COc1cncc2nc(-c3ccnc(Nc4cc(C#N)ccc4F)c3)nc(N3CCNCC3)c12 [Example 420, 4-Fluoro-3-[4-(5-methoxy-4-piperazin-1-yl-pyrido[3,4-d]pyrimidin-2-yl)-pyridin-2-ylamino]-benzonitrile]
IC50: 100 to 1000 nM

CN(c1nc(-c2ccnc(Nc3ncc(F)cc3F)c2)nc2c(Cl)ncc(C3CC3)c12)C1CCNCC1 [Example 2170, {8-Chloro-5-cyclopropyl-2-[2-(3,5-difluoro-pyridin-2-ylamino)-pyridin-4-yl]-pyrido[3,4-d]pyrimidin-4-yl}-methyl-piperidin-4-yl-amine]
IC50: < 100 nM

COc1ccccc1CC(=O)Nc1cc(-c2nc(N[C@@H]3CCNC3)c3ccncc3n2)ccn1 [Example 336, 2-(2-Methoxy-phenyl)-N-{4-[4-((R)-pyrrolidin-3-ylamino)-pyrido[3,4-d]pyrimidin-2-yl]-pyridin-2-yl}-acetamide]
IC50: 100 to 1000 nM

Cc1cc(F)c(Nc2cc(-c3nc(N4CCNCC4)c4c(C5CC5)cncc4n3)ccn2)c(F)c1 [Example 604, [4-(5-Cyclopropyl-4-piperazin-1-yl-pyrido[3,4-d]pyrimidin-2-yl)-pyridin-2-yl]-(2,6-difluoro-4-methyl-phenyl)-amine]
IC50: < 100 nM

CCc1ccc(Nc2cc(-c3nc(N4CCNCC4)c4c(C5CC5)cncc4n3)ccn2)c(F)c1 [Example 717, [4-(5-Cyclopropyl-4-piperazin-1-yl-pyrido[3,4-d]pyrimidin-2-yl)-pyridin-2-yl]-(4-ethyl-2-fluoro-phenyl)-amine]
IC50: < 100 nM

N#CC[C@H]1CN(c2nc(-c3ccnc(Nc4ccccc4)c3)nc3cncc(C4CC4)c23)CCN1 [Example 280, {(S)-4-[5-Cyclopropyl-2-(2-phenylamino-pyridin-4-yl)-pyrido[3,4-d]pyrimidin-4-yl]-piperazin-2-yl}-acetonitrile]
IC50: < 100 nM

OC1CCN(c2nc(-c3ccnc4[nH]c(C(F)(F)F)cc34)nc3cncc(C4CC4)c23)CC1 [Example 1239, 1-[5-Cyclopropyl-2-(2-trifluoromethyl-1H-pyrrolo[2,3-b]pyridin-4-yl)-pyrido[3,4-d]pyrimidin-4-yl]-piperidin-4-ol]
IC50: < 100 nM

FC(F)(F)c1ccc(Nc2cc(-c3nc(N4CCNCC4)c4c(C5CC5)cncc4n3)ccn2)cc1 [Example 595, [4-(5-Cyclopropyl-4-piperazin-1-yl-pyrido[3,4-d]pyrimidin-2-yl)-pyridin-2-yl]-(4-trifluoromethyl-phenyl)-amine]
IC50: < 100 nM

c1cc(-c2nc(N3CCNCC3)c3c(C4CCC4)cncc3n2)c2cc(C3CCC3)[nH]c2n1 [Example 2147, 5-Cyclobutyl-2-(2-cyclobutyl-1H-pyrrolo[2,3-b]pyridin-4-yl)-4-piperazin-1-yl-pyrido[3,4-d]pyrimidine]
IC50: < 100 nM
